The numbers were not newly measured in PubChem BioAssay AID1259409 (Chemical Carcinogenesis Research Information System (CCRIS), 2018), which cites them from elsewhere.

The series has as its system rodent chemically induced tumor inhibition, incidence and multiplicity. Kind of series: CCRIS tumor inhibitor studies. The conditions noted are these: Promoter: NONE USED.

For `O=c1oc2c(O)c(O)cc3c(=O)oc4c(O)c(O)cc1c4c23`, the “tumour outcome (control, treated, inhibition, significance)” value (Carcinogen: 2-AMINO-1-METHYL-6-PHENYL-1H-IMIDAZO[4,5-B]PYRID INE, 105650-23-5, Dose [Inhibitor]: 0, 0.1% IN THE DIET FOR 52 WK (STUDY DURATION: 52 WK), Route [Inhibitor]: ORAL, Species: RAT, Strain/Sex: F344/FEMALE, Target Tissue: Type of Lesion: MAMMARY GLAND: ADENOCARCINOMA, Dose [Carcinogen]: 0.02% IN THE DIET FOR 52 WK) is recorded as 8/20 (40%), 5/19 (26%), 35%, not significant; the “tumour outcome (control, treated, inhibition, significance)” value (Carcinogen: 2-AMINO-1-METHYL-6-PHENYL-1H-IMIDAZO[4,5-B]PYRID INE, 105650-23-5, Dose [Inhibitor]: 0, 0.1% IN THE DIET FOR 52 WK (STUDY DURATION: 52 WK), Route [Inhibitor]: ORAL, Species: RAT, Strain/Sex: F344/FEMALE, Target Tissue: Type of Lesion: MAMMARY GLAND: FIBROADENOMA, Dose [Carcinogen]: 0.02% IN THE DIET FOR 52 WK) was 2/20 (10%), 0/19 (0%), 100%, not significant; the “tumour outcome (control, treated, inhibition, significance)” value (Carcinogen: 2-AMINO-1-METHYL-6-PHENYLIMIDAZO[4,5-B]PYRIDINE, 105650-23-5, Dose [Inhibitor]: 0, 0.1% IN DIET FOR 52 WK CONCURRENTLY WITH CARCINOGEN TREATMENT (STUDY DURATION: 52 WK), Route [Inhibitor]: ORAL, Species: RAT, Strain/Sex: F344/FEMALE, Target Tissue: Type of Lesion: LARGE INTESTINE: ADENOMA OR CARCINOMA, Dose [Carcinogen]: 0.02% IN DIET FOR 52 WK) was 2/18 (11%), 3/18 (17%), -55%, not significant; the “tumour outcome (control, treated, inhibition, significance)” value (Carcinogen: 2-AMINO-1-METHYL-6-PHENYLIMIDAZO[4,5-B]PYRIDINE, 105650-23-5, Dose [Inhibitor]: 0, 0.1% IN DIET FOR 52 WK CONCURRENTLY WITH CARCINOGEN TREATMENT (STUDY DURATION: 52 WK), Route [Inhibitor]: ORAL, Species: RAT, Strain/Sex: F344/FEMALE, Target Tissue: Type of Lesion: MAMMARY GLAND: ADENOCARCINOMA, Dose [Carcinogen]: 0.02% IN DIET FOR 52 WK) is recorded as 8/20 (40%), 5/19 (26%), 35%, not significant; the “tumour outcome (control, treated, inhibition, significance)” value (Carcinogen: 3-METHYLCHOLANTHRENE, 56-49-5, Dose [Inhibitor]: 1 UMOL 2/WK FOR 16 WK APPLIED 1 HR PRIOR TO EACH CARCINOGEN TREATMENT (STUDY DURATION: 16 WK), Route [Inhibitor]: DERMAL, Species: MOUSE, Strain/Sex: BALB/FEMALE, Target Tissue: Type of Lesion: SKIN: TUMOR, Dose [Carcinogen]: 1.5 UMOL 2/WK FOR 16 WK) is on record as 100%, 50%, 50%, not calculated; the “tumour outcome (control, treated, inhibition, significance)” value (Carcinogen: 3-METHYLCHOLANTHRENE, 56-49-5, Dose [Inhibitor]: 1.0 UMOL APPLIED 1 HR PRIOR TO EACH CARCINOGEN DOSE 2/WK FOR 16 WK (STUDY DURATION: 16 WK), Route [Inhibitor]: DERMAL, Species: MOUSE, Strain/Sex: BALB/FEMALE, Target Tissue: Type of Lesion: SKIN: TUMOR, Dose [Carcinogen]: 1.5 UMOL 2/WK FOR 16 WK) was 100%, 50%, 50%, not calculated. The “tumour outcome (control, treated, inhibition, significance)” value reads like this: (Carcinogen: 3-METHYLCHOLANTHRENE, 56-49-5, Dose [Inhibitor]: 2 UMOL 2/WK FOR 16 WK APPLIED 1 HR PRIOR TO EACH CARCINOGEN TREATMENT (STUDY DURATION: 16 WK), Route [Inhibitor]: DERMAL, Species: MOUSE, Strain/Sex: BALB/FEMALE, Target Tissue: Type of Lesion: SKIN: TUMOR, Dose [Carcinogen]: 1.5 UMOL 2/WK FOR 16 WK) 100%, 40%, 60%, not calculated; (Carcinogen: 3-METHYLCHOLANTHRENE, 56-49-5, Dose [Inhibitor]: 2 UMOL APPLIED 1 HR PRIOR TO EACH CARCINOGEN DOSE 2/WK FOR 16 WK (STUDY DURATION : 16 WK), Route [Inhibitor]: DERMAL, Species: MOUSE, Strain/Sex: BALB/FEMALE, Target Tissue: Type of Lesion: SKIN: TUMOR, Dose [Carcinogen]: 1.5 UMOL 2/WK FOR 16 WK) 100%, 40%, 60%, not calculated; (Carcinogen: 4-(METHYLNITROSAMINO)-1-(3-PYRIDYL)-1-BUTANONE, 64091-91-4, Dose [Inhibitor]: 0, 4 G/KG DIET 2 WK PRIOR TO CARCINOGEN TREATMENT AND CONTINUING FOR STUDY DURATION (STUDY DURATION: 26 MO), Route [Inhibitor]: ORAL, Species: MOUSE, Strain/Sex: STRAIN-A/FEMALE, Target Tissue: Type of Lesion: LUNG: ADENOMA, Dose [Carcinogen]: TOTAL DOSE 9.2 MG/MOUSE ADMINISTERED IN DRINKING WATER) 100%, 96%, 4%, not calculated; (Carcinogen: 4-(METHYLNITROSAMINO)-1-(PYRIDYL)-1-BUTANONE, 64091-91-4, Dose [Inhibitor]: 0, 4 G/KG DIET (37 UMOL/D) BEGINNING 2 WK PRIOR TO CARCINOGEN DOSE AND CONTINUING FOR DURATION OF STUDY (STUDY DURATION:, Route [Inhibitor]: ORAL, Species: MOUSE, Strain/Sex: STRAIN-A/FEMALE, Target Tissue: Type of Lesion: LUNG: ADENOMA, Dose [Carcinogen]: 9.2, 9.4 MG/MOUSE IN DRINKING WATER DURING 7 WK) 28/28 (100%), 24/25 (96%), 4%, not significant; (Carcinogen: 4-(METHYLNITROSOAMINO-1-(PYRIDYL)-1-BUTANONE, 64091-91-4, Dose [Inhibitor]: 0, 4 G/KG DIET BEGINNING 1 D POST CARCINOGEN DOSE AND CONTINUING FOR 16 WK (STUDY DURATION: 16 WK), Route [Inhibitor]: ORAL, Species: MOUSE, Strain/Sex: STRAIN-A/FEMALE, Target Tissue: Type of Lesion: LUNG: ADENOMA, Dose [Carcinogen]: 2 MG IN 0.2 ML OF O.9% NACL ONCE) 100%, 100%, 0%, not significant.
